“And” between values parts separate entries of the source, which are not always exact repeats. Equal entries are not always repeated. No end group written: not given here.
Test system: PHKs
Assay: CXCL8 expression in PHKs (qRT-PCR, normalized to actin)
Assay type: cell-based, human
Settings: for CXCL8 expression normalized to actin / CXCL8 induction by S. epidermidis CM with added peptide: PHKs; for CXCL8 expression normalized to actin / CXCL8 induction by S. epidermidis CM with added peptide / induction of CXCL8 expression in PHKs: 5 h; for induction of CXCL8 expression in PHKs: single treatment, 2 µM human AMPs or lugdunin, 0.8 µM (pro)-gallidermin or nisin
Description: Fig. 1 Lugdunin sensitizes epithelial cells for innate immune defense. a Primary human keratinocytes (PHKs) were pretreated with S. epidermidis conditioned medium (CM), indicated lugdunin concentrations, or the combination of both for 20 h. Subsequently, cells were infected with S. aureus for 1.5 h followed by cell lysis and determination of colony-forming units (CFUs). Shown is one representative experiment of three independent experiments with six technical replicates ± s.e.m. n.s., not significant. b Dorsal skin of mice was pretreated with S. epidermidis CM, 1.5 µg lugdunin alone or in combination with S. epidermidis CM for 24 h. Subsequently, S. aureus CFUs were determined. Horizontal lines represent the mean of each group ± s.e.m. c PHKs were treated with 2 μM lugdunin or with S. epidermidis CM alone or in combination for 20 h and subsequently expression of indicated antimicrobial peptides (AMPs) (respective protein names in brackets) was analyzed and normalized to actin. Shown is one representative experiment of three independent experiments with two technical replicates ± s.e.m. d PHKs were treated with 2 µM lugdunin or 100 ng/mL Pam2Cys for 5 h and subsequently the concentration of indicated cytokines in the supernatant was analyzed by LEGENDplex^TM (BioLegend). Shown is one representative experiment of three independent experiments with two technical replicates ± s.e.m. e PHKs were treated with increasing concentrations of lugdunin or 100 ng/mL Pam2Cys or Pam3Cys for 5 h and subsequently expression of chemokine (C-X-C motif) ligand 8 (CXCL8) was analyzed and normalized to actin. Shown is one representative experiment of three independent experiments, each with two technical replicates ± s.e.m. f, g Indicated cells were treated with 2 µM lugdunin or 100 ng/mL Pam2Cys as a positive control for 5 h and subsequently the concentration of CXCL8 (f) and interleukin-1α (IL-1α) (g) in the supernatant was analyzed by LEGENDplex^TM (BioLegend) and enzyme-linked immunosorbent assay (ELISA) (R&D Systems). Shown is one representative experiment of three independent experiments with two technical replicates ± s.e.m. Significant differences to control treatments were analyzed by ordinary one-way analysis of variance (ANOVA) followed by Dunnett’s multiple comparisons test (*P < 0.05; **P < 0.01; ***P < 0.001; ****P < 0.0001). n.d. = not detected. Source data are provided as a Source Data file
Fig. 4 Lugdunin amplifies the commensal-induced chemokine (C-X-C motif) ligand (CXCL8) induction. a Primary human keratinocytes (PHKs) were either treated with 2 μM of human antimicrobial peptides (AMPs) (black bars) or lugdunin (blue bars), or 0.8 μM (pro)-gallidermin or nisin (black bars), or in combination with S. epidermidis conditioned medium (CM) (gray and red striped bars) for 5 h, and subsequently expression of CXCL8 was analyzed and normalized to actin. Shown is one representative experiment of three independent experiments with two technical replicates ± s.e.m. b PHKs were treated with 2 μM human AMPs, 2 μM lugdunin, 0.8 μM of the other bacteriocins (gray bars) or the correspondent peptide combinations (white bars), or 50 ng/mL Pam2Cys, 10 ng/mL IL-1α, or S. epidermidis CM as controls (black bars), for 5 h and subsequently expression of CXCL8 was analyzed and normalized to actin. Shown is one representative experiment of three independent experiments with two technical replicates ± s.e.m. Significant differences to control treatments were analyzed by ordinary one-way analysis of variance (ANOVA) followed by Dunnett’s multiple comparisons test (***P < 0.001; ****P < 0.0001). Source data are provided as a Source Data file
After 5 h or 20 h of peptide treatment, PHKs were washed once with PBS, followed by the addition of RNA lysis buffer directly into the well. Total RNA was extracted using the Nucleospin RNA Kit (Macherey-Nagel) according to the manufacturer’s protocol. […]

[1] = 2 µM human AMPs, 2 µM lugdunin, 0.8 µM other bacteriocins or their combinations, 50 ng/mL Pam2Cys, 10 ng/mL IL-1α, S. epidermidis CM, two technical replicates, Fig 4b
[2] = peptide (2 µM human AMPs or lugdunin, 0.8 µM gallidermin or nisin) in combination with S. epidermidis CM, two technical replicates, Fig 4a
[3] = single treatment: 2 µM human AMPs or lugdunin, 0.8 µM (pro)-gallidermin or nisin, or S. epidermidis CM, M = 1, two technical replicates (rows), Fig 4a

## IASKFLCTPGCAKTGSFNSYCC (also: bicyclic or more (positions not given here)) [Gallidermin, bacteriocin isolated from Staphylococcus gallinarum]
[1]
  CXCL8 expression normalized to actin: 3.22 and 3.395
[2]
  CXCL8 expression normalized to actin: 2.713 and 2.789
Fig 4a
  CXCL8 induction by S. epidermidis CM with added peptide: completely blocked
S. epidermidis CM, Fig 4a
  induction of CXCL8 expression in PHKs: not able to induce CXCL8 expression

## ITSISLCTPGCKTGALMGCNMKTATCHCSIHVSK (not fully specified (bridges); also: lanthionine rings, places not given here) [Nisin, bacteriocin of Lactococcus lactis, purchased from Sigma]
[1]
  CXCL8 expression normalized to actin: 3.325 and 3.22
[2]
  CXCL8 expression normalized to actin: 88.3403 and 93.3773
Fig 4a
  CXCL8 induction by S. epidermidis CM with added peptide: non-significant increase
S. epidermidis CM, Fig 4a
  induction of CXCL8 expression in PHKs: not able to induce CXCL8 expression

## LLGDFFRKSKEKIGKEFKRIVQRIKDFLRNLVPRTES [LL-37, human cathelicidin AMP]
[1]
  CXCL8 expression normalized to actin: 1.54 and 1.645
[2]
  CXCL8 expression normalized to actin: 38.5859 and 33.1285
S. epidermidis CM, Fig 4a
  induction of CXCL8 expression in PHKs: not able to induce CXCL8 expression

## Lugdunin
[1]
  CXCL8 expression normalized to actin: 43.47 and 44.695
Lugdunin 0.5 µM, medium = 1, technical replicates, Fig 1e
  CXCL8 expression normalized to actin: 1.93 and 1.44 and 0.406 and 0.518
Lugdunin 1 µM, technical replicates, Fig 1e
  CXCL8 expression normalized to actin: 10.23 and 9.29 and 0.973 and 1.087
Lugdunin 2 µM, technical replicates, Fig 1e
  CXCL8 expression normalized to actin: 43.4456 and 47.5424 and 22.549 and 29.548
Lugdunin 3 µM, technical replicates, Fig 1e
  CXCL8 expression normalized to actin: 64.669 and 66.487
Lugdunin 5 µM, technical replicates, Fig 1e
  CXCL8 expression normalized to actin: 11.7628 and 11.128
Lugdunin 10 µM, technical replicates, Fig 1e
  CXCL8 expression normalized to actin: 2.0508 and 6.298
[2]
  CXCL8 expression normalized to actin: 1093.7 and 1265.07
[3]
  CXCL8 expression normalized to actin: 44.695 and 43.47
Fig 4a
  CXCL8 induction by S. epidermidis CM with added peptide: over 1000 fold
Higher concentrations did not induce CXCL8 production, text to Fig 1d, e
  lugdunin concentrations that induced expression and release of CXCL8 in PHKs: up to 3 µM
S. epidermidis CM, Fig 4a
  induction of CXCL8 expression in PHKs: over 40 fold

## MEAVKEKNELFDLDVKVNAKESNDSGAEPRIASKFLCTPGCAKTGSFNSYCC [Pro-Gallidermin, non-bactericidal pro-form of gallidermin]
[1]
  CXCL8 expression normalized to actin: 3.465 and 3.43

## SSLLEKGLDGAKKAVGGLGKLGKDAVEDLESVGKGAVHDVKDVLDSV [DCD-1, dermcidin-derived human AMP of eccrine sweat glands]
[1]
  CXCL8 expression normalized to actin: 13.37 and 13.02
[2]
  CXCL8 expression normalized to actin: 61.3666 and 64.6468
[3]
  CXCL8 expression normalized to actin: 13.02 and 13.37
S. epidermidis CM, Fig 4a
  induction of CXCL8 expression in PHKs: 10 fold

## SSLLEKGLDGAKKAVGGLGKLGKDAVEDLESVGKGAVHDVKDVLDSVL [DCD-1L, dermcidin-derived human AMP of eccrine sweat glands]
[1]
  CXCL8 expression normalized to actin: 2.31 and 2.52
[2]
  CXCL8 expression normalized to actin: 45.0983 and 49.3507
[3]
  CXCL8 expression normalized to actin: 2.52 and 2.31

From publication PMC6588697, “Lugdunin amplifies innate immune responses in the skin in synergy with host- and microbiota-derived factors” (Nature Communications, 2019)
